Test results as given in ChEMBL document CHEMBL4177563, “The medicinal chemistry of Chikungunya virus” (Bioorg Med Chem, 2017).

Assays:
Chikungunya virus [1] = experiment: Antiviral activity against Chikungunya virus infected in BHK21 cells assessed as reduction in plague formation at 1 uM after 24 hrs relative to control; assay type: functional; details: BHK-21, 24 h
Vero = experiment: Cytotoxicity against African green monkey Vero cells assessed as reduction in cell viability measured on day 5 post dose by MTS/PMS based microscopic analysis; details: chlorocebus sabaeus
Chikungunya virus [2] = experiment: Antiviral activity against Chikungunya virus 899 infected in African green monkey Vero cells assessed as inhibition of virus-induced cytopathogenic effect measured on day 5 post infection by MTS/PMS based microscopic analysis; assay type: functional, organism-based; details: Chikungunya virus, 899, Vero, 120 h
Chikungunya virus [3] = experiment: Antiviral activity against Chikungunya virus 899 infected in African green monkey Vero A cells assessed as inhibition of virus-induced cytopathogenic effect measured on day 5 post infection by MTS/PMS based microscopic analysis; assay type: functional, organism-based; details: Chikungunya virus, 899, Vero, 120 h
[4] = Cytotoxicity against African green monkey Vero A cells assessed as reduction in cell viability measured on day 5 post infection by MTS/PMS based microscopic analysis; details: chlorocebus sabaeus
Chikungunya virus [5] = experiment: Antiviral activity against Chikungunya virus 899 infected in African green monkey Vero A cells by real-time qRT-PCR analysis; assay type: functional, organism-based; details: Chikungunya virus, 899, Vero
Chikungunya virus [6] = experiment: Antiviral activity against Chikungunya virus 899 infected in African green monkey Vero A cells assessed as reduction in viral infectious progeny by end-point titration assay; assay type: functional, organism-based; details: Chikungunya virus, 899, Vero
Chikungunya virus [7] = experiment: Antiviral activity against Chikungunya virus KC969208 infected in African green monkey Vero cells after 48 hrs by MTT dye-based assay; assay type: functional, organism-based
[8] = Cytotoxicity against African green monkey Vero cells assessed as reduction in cell viability after 4 days by MTT assay; assay type: cell-based; details: chlorocebus sabaeus
Chikungunya virus [9] = experiment: Antiviral activity against Chikungunya virus KC969207 infected in African green monkey Vero cells after 48 hrs by MTT dye-based assay; assay type: functional, organism-based
[10] = Selectivity index, ratio of CC50 for African green monkey Vero cells to IC50 for Chikungunya virus KC969208; assay type: toxicity; details: read-out: Ratio CC50/IC50
[11] = Selectivity index, ratio of CC50 for African green monkey Vero cells to IC50 for Chikungunya virus KC969207; assay type: toxicity; details: read-out: Ratio CC50/IC50
Chikungunya virus [12] = experiment: Antiviral activity against Chikungunya virus C347 infected in African green monkey Vero cells assessed as inhibition of viral-induced cytopathic effect after 2 days by microscopic analysis; assay type: functional, organism-based; details: 48 h
Chikungunya virus [13] = experiment: Antiviral activity against Chikungunya virus venturini isolate (Italy 2008) infected in African green monkey Vero-A cells assessed as inhibition of viral-induced cytopathic effect measured on day 7 post infection by MTS/PMS assay; assay type: functional, organism-based; details: 168 h
Chikungunya virus [14] = experiment: Antiviral activity against Chikungunya virus LR2006-OPY1 infected in African green monkey Vero-A cells assessed as inhibition of viral-induced cytopathic effect measured on day 7 post infection by MTS/PMS assay; assay type: functional, organism-based; details: LR2006-OPY1, 168 h
Chikungunya virus [15] = experiment: Antiviral activity against Chikungunya virus 899 infected in African green monkey Vero-A cells assessed as inhibition of viral-induced cytopathic effect measured on day 7 post infection by MTS/PMS assay; assay type: functional, organism-based; details: Chikungunya virus, 899, 168 h
[16] = Cytotoxicity against human Huh7.5 cells in presence of ATP by Celltiter-Glo assay; assay type: cell-based
[17] = Selectivity index, ratio of CC50 for BHK21 cells to EC50 for Chikungunya virus; assay type: toxicity; details: hamster, BHK-21 cells; read-out: Ratio CC50/EC50
[18] = Cytotoxicity against BHK21 cells in presence of ATP by Celltiter-Glo assay; assay type: cell-based, Mesocricetus auratus; details: hamster, BHK-21 cells
Chikungunya virus [19] = experiment: Antiviral activity against Chikungunya virus LR2006-OPY1 infected in BHK21 cells after 48 hrs by luciferase reporter gene assay; assay type: functional, organism-based; details: LR2006-OPY1, BHK-21, 48 h
Chikungunya virus [20] = experiment: Antiviral activity against Chikungunya virus at 0.006 to 300 uM by cell based luciferase reporter gene assay relative to control; assay type: functional
[21] = Selectivity index, ratio of CC50 for human Huh7.5 cells to EC50 for Chikungunya virus; assay type: toxicity; details: read-out: Ratio CC50/EC50
Chikungunya virus [22] = experiment: Antiviral activity against Chikungunya virus LR2006-OPY1 infected in human Huh7.5 cells after 48 hrs by luciferase reporter gene assay; assay type: functional, organism-based; details: LR2006-OPY1, Huh7.5, 48 h
[23] = Selectivity index, ratio of CC50 for African green monkey Vero cells to IC50 for Chikungunya virus nsP2 protease; assay type: toxicity; details: read-out: Ratio CC50/IC50
Dengue virus [24] = experiment: Antiviral activity against Dengue virus infected in human Huh-7 cells assessed as reduction in viral load at 1 uM; assay type: functional
Dengue virus [25] = experiment: Antiviral activity against Dengue virus infected in human K562 cells assessed as reduction in viral load at 1 uM; assay type: functional
Chikungunya virus [26] = experiment: Antiviral activity against Chikungunya virus infected in human Huh-7 cells assessed as reduction in viral load at 10 uM; assay type: functional
[27] = Cytotoxicity against human U2OS cells assessed as reduction in cell viability after 16 hrs by CCK-8 assay; assay type: cell-based
[28] = Selectivity index, ratio of CC50 for BHK-21 cells to EC50 for Chikungunya virus 0810bTw; assay type: toxicity; details: hamster, read-out: Ratio CC50/EC50
Chikungunya virus [29] = experiment: Antiviral activity against Chikungunya virus infected in BHK-21 cells by RT-qPCR analysis; assay type: functional, organism-based
Chikungunya virus [30] = experiment: Antiviral activity against Chikungunya virus infected in human U2OS cells by RT-qPCR analysis; assay type: functional, organism-based
[31] = Selectivity index, ratio of CC50 for human U2OS cells to EC50 for Chikungunya virus; assay type: toxicity; details: read-out: Ratio CC50/EC50
[32] = Cytotoxicity against BHK21 cells assessed as reduction in cell viability after 16 hrs by CCK-8 assay; assay type: cell-based, Mesocricetus auratus; details: hamster, BHK-21 cells
Chikungunya virus [33] = experiment: Antiviral activity against Chikungunya virus 0810bTw infected in BHK-21 cells by RT-qPCR analysis; assay type: functional, organism-based
Chikungunya virus [34] = experiment: Antiviral activity against Chikungunya virus 0611aTw infected in BHK-21 cells by RT-qPCR analysis; assay type: functional, organism-based
[35] = Selectivity index, ratio of CC50 for BHK-21 cells to EC50 for Chikungunya virus; assay type: toxicity; details: hamster, read-out: Ratio CC50/EC50
[36] = Selectivity index, ratio of CC50 for BHK-21 cells to EC50 for Chikungunya virus 0611aTw; assay type: toxicity; details: hamster, read-out: Ratio CC50/EC50

## C[C@H]1O[C@@H](O[C@H]2CC[C@@]3(C)[C@H](CC[C@@H]4[C@@H]3C[C@@H](O)[C@]3(C)[C@@H](C5=CC(=O)OC5)CC[C@]43O)C2)C[C@H](O)[C@@H]1O[C@H]1C[C@H](O)[C@H](O[C@H]2C[C@H](O)[C@H](O[C@@H]3O[C@H](CO)[C@@H](O)[C@H](O)[C@H]3O)[C@@H](C)O2)[C@@H](C)O1 [DESLANOSIDE]
Chikungunya virus [1]
  inhibition at 1 µM: 38.7%

## CN1CCN(c2nc(C3=C(c4c[nH]c5ccccc45)C(=O)NC3=O)c3ccccc3n2)CC1 [SOTRASTAURIN]
Vero
  CC50: 66 µM
Chikungunya virus [2]
  EC50: > 66 µM

## CCCCCCCC(=O)O[C@H]1/C(=C/C(=O)OC)C[C@H]2C[C@H](CC(=O)OC)OC(=O)CCOc3ccccc3C(=O)OCC(C)(C)[C@]1(O)O2
Chikungunya virus [3]
  EC50: 8 µM
[4]
  CC50 at 5 days: > 50 µM
Chikungunya virus [5]
  EC50: 4.6 µM
Chikungunya virus [6]
  EC50: 4.5 µM

## CCCCOC(=O)c1ccccc1C(=O)O
Chikungunya virus [7]
  IC50: 28.6 µM
[8]
  CC50 at 96 h: 340 µM
Chikungunya virus [9]
  IC50: 2.49 µM
[10]
  selectivity ratio: 11.9
[11]
  selectivity ratio: 136

## Cn1c2ccccc2c2c3c(c4c5ccccc5n(CCC#N)c4c21)CNC3=O [GO-6976]
Vero
  CC50: 6 µM
Chikungunya virus [2]
  EC50: > 6 µM

## NC(=O)c1ncn([C@@H]2O[C@H](CO)[C@@H](O)[C@H]2O)n1 [RIBAVIRIN]
[8]
  CC50 at 96 h: 1620 µM
Chikungunya virus [9]
  IC50: 3.06 µM
[11]
  selectivity ratio: 529
Chikungunya virus [12]
  EC50: 341 µM

## NC(=O)c1nc(F)cnc1O [FAVIPIRAVIR]
Chikungunya virus [13]
  EC50: 16 µM
Chikungunya virus [14]
  EC50: 25 µM
Chikungunya virus [15]
  EC50: 25 µM

## CCCCCCCC(=O)O[C@H]1/C(=C/C(=O)OC)C[C@H]2C[C@H](COC)OC(=O)CCOc3ccccc3C(=O)OCC(C)(C)[C@]1(O)O2
Chikungunya virus [3]
  EC50: 7.5 µM
[4]
  CC50 at 5 days: > 50 µM
Chikungunya virus [5]
  EC50: 6 µM
Chikungunya virus [6]
  EC50: 4.1 µM

## CC1=C(/C=C/C(C)=C/C=C/C(C)=C/C(=O)Nc2ccc(O)cc2)C(C)(C)CCC1 [FENRETINIDE]
[16]
  CC50: 15.6 µM
[17]
  selectivity ratio: 10.3
[18]
  CC50: 31.5 µM
Chikungunya virus [19]
  EC50: 3.1 µM
Chikungunya virus [20]
  Activity: 65%
[21]
  selectivity ratio: 29.9
Chikungunya virus [22]
  EC50: 0.5 µM

## CCOc1ccc(/C=N/NC(=O)/C=C/Cc2ccc(C(C)(C)C)cc2)cc1OCC
[23]
  selectivity ratio: 32

## CCCCCCCCCCCCCCCCCOC(=O)c1ccccc1C(=O)O
Chikungunya virus [7]
  IC50: 76.5 µM
[10]
  selectivity ratio: 4.66

## COc1ccc2cc3[n+](cc2c1OC)CCc1cc2c(cc1-3)OCO2 [BERBERINE]
[16]
  CC50: > 100 µM
[17]
  selectivity ratio: > 55.6
[18]
  CC50: > 100 µM
Chikungunya virus [19]
  EC50: 1.8 µM
Chikungunya virus [20]
  Activity: >85%
[21]
  selectivity ratio: > 52.6
Chikungunya virus [22]
  EC50: 1.9 µM

## O=C1c2c(O)ccc([N+](=O)[O-])c2C(=O)c2c([N+](=O)[O-])ccc(O)c21
Dengue virus [24]
  Activity: >1 log10PFU/ml
Dengue virus [25]
  Activity: >1 log10PFU/ml
Chikungunya virus [26]
  Activity: 1 log10PFU/ml

## O=C(Nc1ccc([N+](=O)[O-])cc1Cl)c1cc(Cl)ccc1O [NICLOSAMIDE]
[27]
  CC50 at 16 h: > 20 µM
[28]
  selectivity ratio: > 22.2
Chikungunya virus [29]
  EC50: 0.95 µM
Chikungunya virus [30]
  EC50: 0.36 µM
[31]
  selectivity ratio: > 55.5
[32]
  CC50 at 16 h: > 20 µM
Chikungunya virus [33]
  EC50: 0.9 µM
Chikungunya virus [34]
  EC50: 0.85 µM
[35]
  selectivity ratio: > 21
[36]
  selectivity ratio: > 23.5
